In ChEMBL document CHEMBL1201862, “PubChem BioAssay data set” (2004):
The source made the active and inactive calls.

Columns and labels:
[1] = molecular target: Melanocortin receptor 4 (Homo sapiens, UniProt P32245); type: functional, cell-based;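 further: Cell-based assay with luminescence read-out, confirmatory dose-response testing for agonist activity of biased ligands at MC4R; human U2OS cells with tagged receptor and beta-arrestin; potency of agonists that increase receptor coupling to beta-arrestin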
Chain of Melanocortin receptor 4 (P32245 whole entry): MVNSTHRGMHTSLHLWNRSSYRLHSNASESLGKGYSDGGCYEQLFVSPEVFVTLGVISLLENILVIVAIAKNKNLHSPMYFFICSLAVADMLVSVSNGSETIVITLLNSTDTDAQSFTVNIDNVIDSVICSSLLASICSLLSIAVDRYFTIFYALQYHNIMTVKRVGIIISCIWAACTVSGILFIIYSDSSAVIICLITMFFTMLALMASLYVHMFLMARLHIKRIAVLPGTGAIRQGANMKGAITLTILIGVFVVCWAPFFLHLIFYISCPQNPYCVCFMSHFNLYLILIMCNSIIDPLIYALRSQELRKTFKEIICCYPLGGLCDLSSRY

[2] = molecular target: Prothrombin (Homo sapiens, UniProt P00734); assay: Thrombin 1536 HTS Dose Response Confirmation. [Related pubchem assays: 1046 (Thrombin 1536 HTS; hits were confirmed in this assay)]; type: functional
[3] = molecular target: T1, Fatty acid synthase (Homo sapiens, UniProt P49327); assay: inhibition of human FAS-TE enzyme activity – biochemical, endpoint fluorescence intensity, uHTS hits, dose response (AID 624327); type: functional;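 further: fluorescence from hydrolysis of an O-methyl fluorescein acyl ester substrate by the enzyme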
T1 sequence (P49327 whole entry): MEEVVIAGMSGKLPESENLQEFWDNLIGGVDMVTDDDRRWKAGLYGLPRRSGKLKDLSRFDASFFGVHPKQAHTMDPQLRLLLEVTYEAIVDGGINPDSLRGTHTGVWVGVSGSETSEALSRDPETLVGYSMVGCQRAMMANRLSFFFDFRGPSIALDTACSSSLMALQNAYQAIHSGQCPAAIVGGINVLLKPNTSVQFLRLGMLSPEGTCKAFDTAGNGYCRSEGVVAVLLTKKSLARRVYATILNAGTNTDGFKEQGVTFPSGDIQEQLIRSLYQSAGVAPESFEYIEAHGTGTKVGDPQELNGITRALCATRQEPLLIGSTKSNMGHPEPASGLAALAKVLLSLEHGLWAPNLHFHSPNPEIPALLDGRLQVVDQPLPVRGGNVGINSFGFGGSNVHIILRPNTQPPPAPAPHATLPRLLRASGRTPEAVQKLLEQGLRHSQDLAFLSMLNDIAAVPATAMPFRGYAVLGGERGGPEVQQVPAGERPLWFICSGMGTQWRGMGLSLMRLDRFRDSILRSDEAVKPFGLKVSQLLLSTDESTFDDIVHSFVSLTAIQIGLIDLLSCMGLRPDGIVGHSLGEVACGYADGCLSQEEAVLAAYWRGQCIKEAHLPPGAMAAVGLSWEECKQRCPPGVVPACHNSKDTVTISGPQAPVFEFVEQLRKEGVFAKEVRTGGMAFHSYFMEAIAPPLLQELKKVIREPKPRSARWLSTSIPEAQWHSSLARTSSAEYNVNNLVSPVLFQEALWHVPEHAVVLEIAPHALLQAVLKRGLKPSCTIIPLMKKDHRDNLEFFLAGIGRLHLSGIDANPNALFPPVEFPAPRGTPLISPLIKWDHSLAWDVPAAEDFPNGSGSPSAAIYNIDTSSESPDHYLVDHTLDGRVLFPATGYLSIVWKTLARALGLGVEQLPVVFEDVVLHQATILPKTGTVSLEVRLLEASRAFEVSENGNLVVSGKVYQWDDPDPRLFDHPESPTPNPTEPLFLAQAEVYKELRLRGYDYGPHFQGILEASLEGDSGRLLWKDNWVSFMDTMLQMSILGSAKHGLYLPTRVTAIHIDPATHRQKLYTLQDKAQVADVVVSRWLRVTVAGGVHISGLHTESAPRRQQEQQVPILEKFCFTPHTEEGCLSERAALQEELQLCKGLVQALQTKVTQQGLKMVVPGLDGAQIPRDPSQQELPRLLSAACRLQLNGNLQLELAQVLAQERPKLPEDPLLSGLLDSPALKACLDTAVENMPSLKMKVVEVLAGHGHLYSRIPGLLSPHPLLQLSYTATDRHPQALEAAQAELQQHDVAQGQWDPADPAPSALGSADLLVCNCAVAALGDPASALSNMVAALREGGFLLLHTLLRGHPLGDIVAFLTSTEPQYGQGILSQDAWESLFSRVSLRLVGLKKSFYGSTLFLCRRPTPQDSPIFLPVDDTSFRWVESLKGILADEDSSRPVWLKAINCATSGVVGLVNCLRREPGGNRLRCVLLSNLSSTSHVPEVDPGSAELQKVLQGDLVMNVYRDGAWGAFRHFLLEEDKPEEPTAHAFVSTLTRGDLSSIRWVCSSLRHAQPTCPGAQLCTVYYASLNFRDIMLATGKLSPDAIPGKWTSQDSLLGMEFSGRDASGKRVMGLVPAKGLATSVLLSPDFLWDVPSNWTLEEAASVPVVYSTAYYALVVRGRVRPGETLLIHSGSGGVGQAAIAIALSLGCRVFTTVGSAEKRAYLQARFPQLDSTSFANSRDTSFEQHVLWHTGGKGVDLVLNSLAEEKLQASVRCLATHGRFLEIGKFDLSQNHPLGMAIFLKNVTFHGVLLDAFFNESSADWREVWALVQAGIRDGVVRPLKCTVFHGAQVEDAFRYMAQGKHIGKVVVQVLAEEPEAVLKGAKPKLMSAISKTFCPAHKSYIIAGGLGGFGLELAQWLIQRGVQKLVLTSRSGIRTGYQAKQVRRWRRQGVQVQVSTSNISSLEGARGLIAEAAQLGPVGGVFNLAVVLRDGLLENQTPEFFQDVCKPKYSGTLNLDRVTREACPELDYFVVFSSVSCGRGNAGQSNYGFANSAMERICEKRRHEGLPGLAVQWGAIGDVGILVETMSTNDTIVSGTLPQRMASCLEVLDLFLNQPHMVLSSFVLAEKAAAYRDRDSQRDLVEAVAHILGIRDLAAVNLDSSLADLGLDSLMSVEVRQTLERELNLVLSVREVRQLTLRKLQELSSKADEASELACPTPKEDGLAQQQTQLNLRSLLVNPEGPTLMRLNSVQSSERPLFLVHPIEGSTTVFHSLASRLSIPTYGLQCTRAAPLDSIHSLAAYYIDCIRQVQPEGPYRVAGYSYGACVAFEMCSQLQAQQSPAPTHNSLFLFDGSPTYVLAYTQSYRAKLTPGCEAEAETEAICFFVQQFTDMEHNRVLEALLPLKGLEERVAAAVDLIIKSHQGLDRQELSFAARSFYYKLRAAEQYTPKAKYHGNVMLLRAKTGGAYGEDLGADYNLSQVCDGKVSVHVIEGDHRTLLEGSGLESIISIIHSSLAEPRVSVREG

[4] = molecular target: T1, Fatty acid synthase; assay: inhibition of human FAS-TE enzyme activity – biochemical, kinetic fluorescence intensity, dose response (AID 624326); type: functional;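 further: rate of fluorescence rise from hydrolysis of a fluorogenic O-methyl fluorescein ester substrate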
[5] = molecular target: Estrogen receptor beta (Homo sapiens, UniProt Q92731);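 further: recombinant ER-beta bound to coactivator SRC1 peptide in presence of estradiol agonist; inhibitors block coactivator peptide binding and lower the FRET signal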
Chain of Estrogen receptor beta (Q92731 whole entry): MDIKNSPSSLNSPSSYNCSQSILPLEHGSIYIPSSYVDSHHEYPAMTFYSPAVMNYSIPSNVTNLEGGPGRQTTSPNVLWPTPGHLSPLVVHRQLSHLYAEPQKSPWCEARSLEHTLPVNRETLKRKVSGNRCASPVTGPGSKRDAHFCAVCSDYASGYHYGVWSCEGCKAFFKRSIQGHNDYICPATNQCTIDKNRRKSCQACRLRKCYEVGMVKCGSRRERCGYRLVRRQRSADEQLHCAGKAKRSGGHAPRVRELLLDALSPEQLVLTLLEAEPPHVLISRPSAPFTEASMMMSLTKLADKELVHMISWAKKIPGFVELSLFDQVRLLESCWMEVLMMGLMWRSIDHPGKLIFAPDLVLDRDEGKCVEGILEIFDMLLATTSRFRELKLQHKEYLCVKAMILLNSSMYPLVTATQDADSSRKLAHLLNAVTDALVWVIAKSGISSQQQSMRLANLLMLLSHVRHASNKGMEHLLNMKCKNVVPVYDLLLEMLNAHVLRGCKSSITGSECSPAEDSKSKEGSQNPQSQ

[6] = cells; type: functional, cell-based
[7] = molecular target: T2, Trace amine-associated receptor 1 (Homo sapiens, UniProt Q96RJ0); assay: Fluorescence-based cell-based high throughput dose response assay to identify agonists of the human trace amine associated receptor 1 (TAAR1).; type: functional
T2 sequence (Q96RJ0 whole entry): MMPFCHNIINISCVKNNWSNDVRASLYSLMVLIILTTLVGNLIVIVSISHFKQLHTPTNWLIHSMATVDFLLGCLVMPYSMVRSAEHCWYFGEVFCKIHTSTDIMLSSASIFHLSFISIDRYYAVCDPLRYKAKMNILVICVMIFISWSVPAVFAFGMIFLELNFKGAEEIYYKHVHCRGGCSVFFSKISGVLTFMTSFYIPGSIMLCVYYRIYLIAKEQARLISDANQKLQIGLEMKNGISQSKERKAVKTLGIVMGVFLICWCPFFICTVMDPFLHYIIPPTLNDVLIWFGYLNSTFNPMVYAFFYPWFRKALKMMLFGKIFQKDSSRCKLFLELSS

[8] = molecular target: T2, Trace amine-associated receptor 1; assay: Counterscreen for agonists of the human trace amine associated receptor 1 (hTAAR1): Fluorescence-based cell-based high throughput dose response assay to identify hTAAR1 agonist that also desensitize TAAR1 receptor response.; type: functional
[9] = cells; type: functional, cell-based; remark: listed apart in the source
[10] = molecular target: T3, Rac GTPase-activating protein 1 (Homo sapiens, UniProt Q9H0H5); assay: blockers of MgcRacGAP-driven Rac1 GTP hydrolysis – biochemical, ADP Hunter fluorescence, primary and confirmatory, confirmation (AID 624330); type: functional
T3 sequence (Q9H0H5 whole entry): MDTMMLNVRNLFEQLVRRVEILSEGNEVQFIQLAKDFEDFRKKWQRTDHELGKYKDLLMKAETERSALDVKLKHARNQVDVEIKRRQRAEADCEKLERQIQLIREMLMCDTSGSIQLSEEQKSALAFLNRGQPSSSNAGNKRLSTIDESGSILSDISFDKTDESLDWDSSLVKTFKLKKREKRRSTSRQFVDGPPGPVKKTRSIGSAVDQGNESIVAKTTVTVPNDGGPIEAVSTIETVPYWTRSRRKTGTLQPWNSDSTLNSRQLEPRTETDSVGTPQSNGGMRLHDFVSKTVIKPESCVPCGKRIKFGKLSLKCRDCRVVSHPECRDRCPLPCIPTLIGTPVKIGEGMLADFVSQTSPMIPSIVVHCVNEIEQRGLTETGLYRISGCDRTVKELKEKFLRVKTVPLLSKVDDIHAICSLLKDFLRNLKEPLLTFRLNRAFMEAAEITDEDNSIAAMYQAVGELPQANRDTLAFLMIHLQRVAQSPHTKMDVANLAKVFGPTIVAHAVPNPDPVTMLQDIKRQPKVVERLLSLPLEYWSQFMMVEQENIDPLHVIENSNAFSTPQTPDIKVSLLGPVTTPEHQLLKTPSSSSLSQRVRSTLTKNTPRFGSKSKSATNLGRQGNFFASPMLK

[11] = molecular target: T4, Sentrin-specific protease 8 (Homo sapiens, UniProt Q96LD8); assay: inhibition of human SENP8 cleavage activity – biochemical, luminescence, SAR follow-up (AID 504501); type: functional
T4 sequence (Q96LD8 whole entry): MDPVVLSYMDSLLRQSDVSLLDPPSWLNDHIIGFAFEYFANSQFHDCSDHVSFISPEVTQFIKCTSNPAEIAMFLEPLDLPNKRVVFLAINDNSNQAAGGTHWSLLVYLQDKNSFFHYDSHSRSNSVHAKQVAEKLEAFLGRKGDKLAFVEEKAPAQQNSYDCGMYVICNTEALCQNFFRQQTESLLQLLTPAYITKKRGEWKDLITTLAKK

[12] = molecular target: T5, Caspase-3 (Homo sapiens, UniProt P42574); assay: SAR Analysis of small molecule inhibitors of Sentrin-specific proteases (SENPs) using a Caspase-3 Selectivity assay. [Related pubchem assays (depositor defined):AID2540, AID2599, AID434973, AID489001]; type: functional
T5 sequence (P42574 whole entry): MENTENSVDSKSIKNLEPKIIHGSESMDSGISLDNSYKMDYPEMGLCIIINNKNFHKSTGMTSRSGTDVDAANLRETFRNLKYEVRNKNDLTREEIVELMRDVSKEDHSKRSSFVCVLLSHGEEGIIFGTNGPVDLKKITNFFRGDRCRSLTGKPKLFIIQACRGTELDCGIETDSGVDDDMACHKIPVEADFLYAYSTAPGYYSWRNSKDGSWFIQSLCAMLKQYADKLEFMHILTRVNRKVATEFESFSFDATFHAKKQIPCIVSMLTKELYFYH

[13] = molecular target: T6, Sentrin-specific protease 6 (Homo sapiens, UniProt Q9GZR1); assay: SAR Analysis of small molecule inhibitors of Sentrin-specific protease 6 (SENP6) using a Luminescent assay. [Related pubchem assays (depositor defined):AID2582, AID2599]; type: functional
T6 sequence (Q9GZR1 whole entry): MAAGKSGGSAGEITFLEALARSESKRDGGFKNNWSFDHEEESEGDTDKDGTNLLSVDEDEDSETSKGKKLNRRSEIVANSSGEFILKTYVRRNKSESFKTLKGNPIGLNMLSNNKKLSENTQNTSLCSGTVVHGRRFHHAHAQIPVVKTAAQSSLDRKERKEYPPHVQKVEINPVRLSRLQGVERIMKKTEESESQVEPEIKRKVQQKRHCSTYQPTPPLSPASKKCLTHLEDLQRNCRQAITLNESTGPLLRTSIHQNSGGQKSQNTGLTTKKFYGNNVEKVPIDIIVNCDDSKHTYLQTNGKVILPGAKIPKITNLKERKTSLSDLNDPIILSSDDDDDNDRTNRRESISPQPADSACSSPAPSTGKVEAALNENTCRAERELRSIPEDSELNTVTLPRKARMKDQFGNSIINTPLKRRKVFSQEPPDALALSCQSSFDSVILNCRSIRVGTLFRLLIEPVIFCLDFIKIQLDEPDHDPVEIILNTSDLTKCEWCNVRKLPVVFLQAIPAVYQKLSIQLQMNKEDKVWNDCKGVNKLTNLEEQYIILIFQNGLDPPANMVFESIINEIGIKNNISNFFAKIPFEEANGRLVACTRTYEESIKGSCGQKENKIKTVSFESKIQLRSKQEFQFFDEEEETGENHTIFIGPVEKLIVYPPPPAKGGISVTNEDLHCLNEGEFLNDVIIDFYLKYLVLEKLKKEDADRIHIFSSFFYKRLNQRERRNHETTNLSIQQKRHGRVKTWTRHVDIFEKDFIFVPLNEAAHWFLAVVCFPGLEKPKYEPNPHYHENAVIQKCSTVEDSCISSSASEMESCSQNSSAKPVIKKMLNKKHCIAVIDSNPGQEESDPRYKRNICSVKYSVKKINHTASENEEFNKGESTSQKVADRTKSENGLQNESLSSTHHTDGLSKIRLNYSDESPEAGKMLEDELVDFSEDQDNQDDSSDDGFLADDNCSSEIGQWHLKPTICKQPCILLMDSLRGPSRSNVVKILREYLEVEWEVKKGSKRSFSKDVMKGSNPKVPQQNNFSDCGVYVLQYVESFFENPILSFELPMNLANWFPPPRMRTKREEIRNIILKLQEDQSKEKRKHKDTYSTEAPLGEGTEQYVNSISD

[14] = molecular target: T7, Sentrin-specific protease 7 (Homo sapiens, UniProt Q9BQF6); assay: inhibition of human SENP7 cleavage activity – biochemical, luminescence, SAR follow-up (AID 504497); type: functional
T7 sequence (Q9BQF6 whole entry): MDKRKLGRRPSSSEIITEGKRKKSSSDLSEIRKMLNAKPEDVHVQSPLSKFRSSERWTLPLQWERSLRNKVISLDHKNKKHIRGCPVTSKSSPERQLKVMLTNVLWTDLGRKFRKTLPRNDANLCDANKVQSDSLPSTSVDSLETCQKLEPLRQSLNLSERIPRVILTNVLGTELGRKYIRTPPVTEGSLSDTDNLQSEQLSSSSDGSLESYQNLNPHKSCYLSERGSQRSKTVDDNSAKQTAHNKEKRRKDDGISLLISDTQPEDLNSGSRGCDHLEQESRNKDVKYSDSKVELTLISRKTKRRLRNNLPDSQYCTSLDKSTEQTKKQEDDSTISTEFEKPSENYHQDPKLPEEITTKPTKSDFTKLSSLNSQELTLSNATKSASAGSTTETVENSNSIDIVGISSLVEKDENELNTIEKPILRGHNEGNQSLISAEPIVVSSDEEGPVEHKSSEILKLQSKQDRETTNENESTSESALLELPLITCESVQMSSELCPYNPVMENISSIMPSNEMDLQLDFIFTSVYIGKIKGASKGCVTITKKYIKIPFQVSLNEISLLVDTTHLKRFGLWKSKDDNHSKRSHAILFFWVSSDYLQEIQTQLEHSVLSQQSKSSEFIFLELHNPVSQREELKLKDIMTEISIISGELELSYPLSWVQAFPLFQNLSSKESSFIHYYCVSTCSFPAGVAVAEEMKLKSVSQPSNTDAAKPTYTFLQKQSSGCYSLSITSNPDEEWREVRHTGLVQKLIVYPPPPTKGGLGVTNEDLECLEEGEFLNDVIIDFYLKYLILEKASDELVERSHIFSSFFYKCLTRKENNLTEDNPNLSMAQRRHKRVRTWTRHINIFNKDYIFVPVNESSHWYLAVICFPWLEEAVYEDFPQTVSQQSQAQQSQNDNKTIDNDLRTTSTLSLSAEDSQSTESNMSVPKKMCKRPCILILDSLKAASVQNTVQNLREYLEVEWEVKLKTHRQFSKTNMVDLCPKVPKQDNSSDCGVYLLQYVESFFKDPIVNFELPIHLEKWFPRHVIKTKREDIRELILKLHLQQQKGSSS

Cc1ccccc1-c1nc(-c2ccc(NC(=O)c3ccc(Br)o3)cc2)no1
EC50 [1]: > 89.2 µM (inactive)

CCn1cc(C(=O)NCc2ccc3c(c2)OCO3)c(=O)c2cc(S(=O)(=O)N(C)C)ccc21
IC50 [2]: 0.537 µM (active) | IC50 [3]: 8.88 µM (active) | IC50 [4]: 12.1 µM (active)

CCN(CC)S(=O)(=O)c1ccc(C(=O)NCc2ccc(C)cc2)cc1
IC50 [5]: > 50 µM (not active)

NNc1nc(Nc2ccccc2)nc(N2CCCCC2)n1
IC50 [6]: > 29.9 µM (inactive) | EC50 [7]: 3.48 µM (active) | IC50 [8]: 8.76 µM (active) | EC50 [9]: > 29.9 µM (inactive)

CCOC(=O)c1[nH]c2ccccc2c1NC(=S)Nc1ccccc1
IC50 [2]: 3.09 µM (active) | IC50 [10]: 108 µM (active)

O=C(COC(=O)Cc1ccccc1F)NCCc1ccccc1
IC50 [6]: > 29.9 µM (inactive) | EC50 [7]: > 9.96 µM (active) | IC50 [8]: 2.35 µM (active) | EC50 [9]: > 29.9 µM (inactive)

CC(=O)n1nc(-c2ccccc2)nc1NCc1ccc(F)cc1
IC50 [2]: 0.0165 µM (active)

O=C(CN1CCc2ccccc2C1)Nc1ccccc1C(F)(F)F
IC50 [10]: 205 µM (active) | IC50 [6]: > 29.9 µM (inactive) | EC50 [7]: 3.55 µM (active) | IC50 [8]: 11.1 µM (inactive) | EC50 [9]: > 29.9 µM (inactive)

CCOC(=O)CSc1nnc(NC(=O)c2cc([N+](=O)[O-])cc([N+](=O)[O-])c2)s1
IC50 [2]: > 50 µM (not active)

CCOC(=O)c1c(-c2ccc(Br)cc2)csc1NC(=O)C1CC1
IC50 [11]: > 99 µM (inactive) | IC50 [12]: > 99 µM (inactive) | IC50 [13]: > 99 µM (inactive) | IC50 [14]: > 99 µM (inactive)

COc1ccc(CNC(=O)Nc2nc(C(N)Cc3ccc(C(F)(F)F)cc3)cs2)cc1 (centres undefined)
EC50 [1]: > 89.2 µM (inactive)

CS(=O)(=O)c1ccc2nc(NC(=O)c3cccc(NS(=O)(=O)c4ccccc4)c3)sc2c1
IC50 [11]: > 99 µM (inactive) | IC50 [12]: > 99 µM (inactive) | IC50 [13]: > 99 µM (inactive) | IC50 [14]: > 99 µM (inactive)

COc1ccc(N/N=C/c2cn(Cc3ccccc3)c3ccccc23)cc1
IC50 [11]: > 99 µM (inactive) | IC50 [12]: > 99 µM (inactive) | IC50 [13]: > 99 µM (inactive) | IC50 [14]: > 99 µM (inactive)

Cc1ccc(S(=O)(=O)Nc2ccc3sc(NC(=O)c4ccccc4)nc3c2)cc1
IC50 [11]: > 99 µM (inactive) | IC50 [12]: > 99 µM (inactive) | IC50 [13]: > 99 µM (inactive) | IC50 [14]: > 99 µM (inactive)

COc1ccc(-c2cc(NC=O)c3ncc(-c4cccc(C(F)(F)F)c4)n3c2)cc1OC
EC50 [1]: 12.4 µM (inactive)

C/C(=N\NC(=O)COc1cccc2ccccc12)c1cccs1
EC50 [1]: > 89.2 µM (inactive)

CCOC(=O)N[C@H](C(=O)N1CCC[C@H]1C(=O)NCCc1ccccc1Cl)c1ccccc1
IC50 [6]: > 29.9 µM (inactive) | EC50 [7]: 2.06 µM (active) | IC50 [8]: 6.89 µM (active) | EC50 [9]: > 29.9 µM (inactive)

Nc1nc(-c2ccccc2)cn1/N=C/c1ccccc1
IC50 [6]: > 29.9 µM (inactive) | EC50 [7]: 1.49 µM (active) | IC50 [8]: 8.47 µM (active) | EC50 [9]: > 29.9 µM (inactive)
